How the values were obtained:
[1] = target: T1, RPH-Lm (rifampin phosphotransferase) (Listeria monocytogenes, UniProt A0A0X1KHF9); assay: SAXS, ensemble optimization; type: binding; settings: Mg2+; 20 mM Hepes pH 7.5, 100 mM KCl; 10 °C; 10-fold molar excess; non-hydrolysable ATP analogue
T1 construct: full-length from E. coli; crystals and SAXS: His6-tag removed by TEV (pMCSG53 for crystals); kinetics: pET19Tb:rph-Lm; monomer; ATP-grasp 1-314, RIF-BD 327-754, swivel 767-865, catalytic His825

[2] = target: T1, RPH-Lm (rifampin phosphotransferase); assay: X-ray crystallography; settings: crystallized with 5 mM RIF and 5 mM ATP; RIF-binding domain; 2.85 Å
[3] = target: T1, RPH-Lm (rifampin phosphotransferase); assay: X-ray crystallography (SAD); settings: Se-Met protein; 5 mM RIF; pH 6; RIF-binding domain; 2.70 Å
[4] = test system: CO[C@H]1/C=C/O[C@@]2(C)Oc3c(C)c(O)c4c(O)c(c(/C=N/N5CCN(C)CC5)c(O)c4c3C2=O)NC(=O)/C(C)=C\C=C\[C@H](C)[C@H](O)[C@@H](C)[C@@H](O)[C@@H](C)[C@H](OC(C)=O)[C@@H]1C; assay: purified protein; settings: ATP at five times its Km, 50 mM Hepes pH 7.5, 5 mM MgCl2, 40 mM NH4Cl, 25 °C, 11.3 μM enzyme

T1 sequence (A0A0X1KHF9 whole entry): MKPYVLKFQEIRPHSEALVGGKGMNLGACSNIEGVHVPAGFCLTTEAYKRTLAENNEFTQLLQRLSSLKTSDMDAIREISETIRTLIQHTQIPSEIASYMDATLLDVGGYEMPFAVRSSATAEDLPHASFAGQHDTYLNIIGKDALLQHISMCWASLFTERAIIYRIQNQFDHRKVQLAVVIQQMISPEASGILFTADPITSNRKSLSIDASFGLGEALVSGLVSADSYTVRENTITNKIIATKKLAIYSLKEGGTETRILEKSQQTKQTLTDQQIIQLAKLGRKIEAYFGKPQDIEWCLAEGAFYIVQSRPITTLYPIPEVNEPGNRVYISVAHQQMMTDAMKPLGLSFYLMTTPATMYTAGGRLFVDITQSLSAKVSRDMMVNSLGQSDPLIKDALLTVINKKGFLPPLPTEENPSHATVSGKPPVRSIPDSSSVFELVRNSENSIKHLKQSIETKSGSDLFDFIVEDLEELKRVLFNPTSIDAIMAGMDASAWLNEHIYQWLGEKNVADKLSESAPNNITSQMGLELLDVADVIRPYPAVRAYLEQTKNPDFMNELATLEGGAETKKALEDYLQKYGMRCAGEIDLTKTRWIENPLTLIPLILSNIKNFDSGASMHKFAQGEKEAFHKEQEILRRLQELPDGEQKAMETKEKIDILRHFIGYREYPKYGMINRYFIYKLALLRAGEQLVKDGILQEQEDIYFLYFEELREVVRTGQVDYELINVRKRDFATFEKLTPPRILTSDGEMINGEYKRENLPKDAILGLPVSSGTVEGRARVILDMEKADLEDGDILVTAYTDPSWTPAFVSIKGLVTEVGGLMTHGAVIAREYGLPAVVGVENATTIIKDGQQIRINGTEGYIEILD

Nc1ncnc2c1ncn2[C@@H]1O[C@H](COP(=O)(O)CP(=O)(O)OP(=O)(O)O)[C@@H](O)[C@H]1O [AMP-cPP]
SAXS, ensemble optimization [1]: RPH-Lm bound to either analogue showed an increase in the ATP-grasp engaged population

CO[C@H]1/C=C/O[C@@]2(C)Oc3c(C)c(O)c4c(O)c(c(/C=N/N5CCN(C)CC5)c(O)c4c3C2=O)NC(=O)/C(C)=C\C=C\[C@H](C)[C@H](OP(=O)(O)O)[C@@H](C)[C@@H](O)[C@@H](C)[C@H](OC(C)=O)[C@@H]1C [RIF-P]
X-ray crystallography [2]: 5FBU (RPH-Lm·RIF-P)

CO[C@H]1/C=C/O[C@@]2(C)Oc3c(C)c(O)c4c(O)c(c(/C=N/N5CCN(C)CC5)c(O)c4c3C2=O)NC(=O)/C(C)=C\C=C\[C@H](C)[C@H](O)[C@@H](C)[C@@H](O)[C@@H](C)[C@H](OC(C)=O)[C@@H]1C [RIF]
X-ray crystallography (SAD) [3]: 5FBT (RPH-Lm·RIF)

Nc1ncnc2c1ncn2[C@@H]1O[C@H](COP(=O)(O)OP(=O)(O)NP(=O)(O)O)[C@@H](O)[C@H]1O [AMP-PnP]
SAXS, ensemble optimization [1]: RPH-Lm bound to either analogue showed an increase in the ATP-grasp engaged population

RPH-Lm (rifampin phosphotransferase) (Listeria monocytogenes serotype 4b str. F2365)
Km [4]: 0.57 ± 0.15 µM | kcat [4]: 2.25 ± 0.17 s⁻¹ | kcat/Km [4]: 3.94e+06 M⁻¹ s⁻¹

Reference: article PMC4844700, “Rifampin phosphotransferase is an unusual antibiotic resistance kinase” (Nature Communications, 2016)
